Experimental data reported in PubChem BioAssay (NCI).
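Results reflect a 48-hour exposure of cells in 96-well plates to compound at five concentrations. GI50: concentration for 50% inhibition of growth. TGI is the concentration that stops growth completely.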

Columns and labels:
Assay in all cases: DTP human tumour cell line panel, 48 h
786-0 renal = test system: 786-0 renal
COLO 205 colon = test system: COLO 205 colon
NCI-H23 lung = test system: NCI-H23 lung
SR leukemia = test system: SR leukemia
SK-MEL-28 melanoma = test system: SK-MEL-28 melanoma
SF-295 CNS = test system: SF-295 CNS
MDA-MB-435 = test system: MDA-MB-435
MDA-MB-231 breast = test system: MDA-MB-231 breast
RPMI-8226 leukemia = test system: RPMI-8226 leukemia
HS 578T breast = test system: HS 578T breast
OVCAR-8 ovarian = test system: OVCAR-8 ovarian
HCT-116 colon = test system: HCT-116 colon
LOX IMVI melanoma = test system: LOX IMVI melanoma
SK-MEL-5 melanoma = test system: SK-MEL-5 melanoma
SNB-75 CNS = test system: SNB-75 CNS
K-562 leukemia = test system: K-562 leukemia
SNB-19 CNS = test system: SNB-19 CNS
ACHN renal = test system: ACHN renal
A549 NSCLC = test system: A549 NSCLC
EKVX NSCLC = test system: EKVX NSCLC
OVCAR-3 ovarian = test system: OVCAR-3 ovarian
NCI-H460 lung = test system: NCI-H460 lung
SW-620 colon = test system: SW-620 colon
SN12C renal = test system: SN12C renal
CAKI-1 renal = test system: CAKI-1 renal
UACC-62 melanoma = test system: UACC-62 melanoma
U251 CNS = test system: U251 CNS
NCI-H226 lung = test system: NCI-H226 lung

## COc1ccc([C@H]2[C@H](O)C(=O)N2c2cc(OC)c(OC)c(OC)c2)cc1F
786-0 renal
  GI50: < 10 nM
  TGI: > 100000 nM
COLO 205 colon
  GI50: < 10 nM
  TGI: < 10 nM
NCI-H23 lung
  GI50: < 10 nM
  TGI: > 100000 nM
SR leukemia
  GI50: < 10 nM
  TGI: > 100000 nM
SK-MEL-28 melanoma
  GI50: < 10 nM
  TGI: > 100000 nM
SF-295 CNS
  GI50: < 10 nM
  TGI: > 100000 nM
MDA-MB-435
  GI50: < 10 nM
  TGI: < 10 nM
MDA-MB-231 breast
  GI50: < 10 nM
  TGI: > 100000 nM
RPMI-8226 leukemia
  GI50: < 10 nM
  TGI: > 34500 nM
HS 578T breast
  GI50: < 10 nM
  TGI: > 100000 nM
OVCAR-8 ovarian
  GI50: < 10 nM
HCT-116 colon
  GI50: < 10 nM
  TGI: > 100000 nM
LOX IMVI melanoma
  GI50: < 10 nM
  TGI: > 100000 nM
SK-MEL-5 melanoma
  GI50: < 10 nM
  TGI: 12 nM
SNB-75 CNS
  GI50: < 10 nM
K-562 leukemia
  GI50: < 10 nM
  TGI: > 100000 nM
SNB-19 CNS
  GI50: < 10 nM
  TGI: > 100000 nM
ACHN renal
  GI50: < 10 nM
  TGI: > 100000 nM
A549 NSCLC
  GI50: < 10 nM
  TGI: > 100000 nM
EKVX NSCLC
  TGI: > 100000 nM
OVCAR-3 ovarian
  GI50: < 10 nM
  TGI: > 100000 nM
NCI-H460 lung
  GI50: < 10 nM
  TGI: > 39100 nM
SW-620 colon
  GI50: < 10 nM
  TGI: > 100000 nM
SN12C renal
  GI50: < 10 nM
  TGI: > 100000 nM
CAKI-1 renal
  GI50: < 10 nM
  TGI: > 100000 nM
UACC-62 melanoma
  GI50: < 10 nM
  TGI: > 100000 nM
U251 CNS
  GI50: < 10 nM
  TGI: > 100000 nM
NCI-H226 lung
  GI50: < 10 nM
